Source: patent publication US20050037090A1, “Combination therapy including a cyclooxygenase-2 inhibitor and an antineoplastic agent” (priority 1998, published 2005)
Read-outs that look alike come from different tables or passages of the source.

Experiments:
[1] = test system: HT-29 human colon cancer cells; experiment: HT-29 Model, third assay (C): tumor volume, 5-FU days 14-17 with or without celecoxib or valdecoxib in the diet (Table 21); type: in vivo, mice; details: for reduction in tumor volume: mice with HT-29 tumors, 5-FU i.p. 50 mg/kg days 14 through 17, celecoxib 1600 ppm, valdecoxib 160 ppm in the diet
Experimental: (§1) Mice were injected subcutaneously in the left paw (1×10^6 tumor cells suspended in 30% Matrigel) and tumor volume was evaluated using a phlethysmometer twice a week for 30-60 days. Implantation of human colon cancer cells (HT-29) into nude mice produces tumors that will reach 0.6-2 ml between 30-50 days. […] The data are expressed as the mean+/−SEM. Student's and Mann-Whitney tests were used to assess differences between means using the InStat software package.
(§2) The efficacy of both agents were determined by measuring tumor volume.

[2] = test system: HT-29 human colon cancer cells; details: mice with HT-29 tumors; 5-FU i.p. 50 mg/kg on days 12, 13, 14, 15; celecoxib in the diet
Experimental: as §1, §2

[3] = test system: HT-29 human colon cancer cells
Experimental: as §1, §2

Lewis Lung tumors = experiment: Lewis Lung Model: tumor volume and lung metastasis in mice; type: in vivo
Experimental: Mice were injected subcutaneously in the left paw (1×10^6 tumor cells suspended in 30% Matrigel) and tumor volume was evaluated using a phlethysmometer twice a week for 30-60 days. […] The data are expressed as the mean+/−SEM. Student's and Mann-Whitney tests were used to assess differences between means using the InStat software package. […] Analysis of lung metastasis was done in all the animals by counting metastasis in a stereomicroscope and by histochemical analysis of consecutive lung sections.

[4] = test system: HT-29 human colon cancer cells; experiment: HT-29 Model, fourth assay (D): celecoxib 10, 40 or 160 ppm in the diet from day 10 (Table 22); type: in vivo, mice; details: celecoxib 10, 40 or 160 ppm in the diet beginning at day 10
Experimental: as §1

## O=c1[nH]cc(F)c(=O)[nH]1 [5-FU, 5-fluorouracil]
[1]
  reduction in tumor volume: 35%
[2]
  reduction of tumor volume: 61%

## NS(=O)(=O)c1ccc(-n2nc(C(F)(F)F)cc2-c2ccc(Cl)cc2)cc1 [SC-58236]
[3]; mice with HT-29 tumors
  formation of lung metastasis: completely inhibited
[3]; mice with HT-29 tumors, COX-2 inhibitor in the diet
  reduction of tumor volume: 89%

## Cc1ccc(-c2cc(C(F)(F)F)nn2-c2ccc(S(N)(=O)=O)cc2)cc1 [celecoxib, 4-[5-(4-methylphenyl)-3-(trifluoromethyl)-1H-pyrazol-1-yl]-benzenesulfonamide]
Lewis Lung tumors; celecoxib in the diet
  size of the metastasic lesions in the lung, histopathological analysis: dose-dependently reduced
Lewis Lung tumors; celecoxib in the diet 480-3200 ppm
  reduction of surface metastasis (lung): more than 50%
Lewis Lung tumors; celecoxib in the diet, lower dose of 160 ppm
  effect on lung metastasis: did not affect
[1]; celecoxib 160 ppm in diet, day 11
  Tumor Volume: 0.05 mL
[1]; celecoxib 160 ppm in diet, day 14
  Tumor Volume: 0.13 mL
[1]; celecoxib 160 ppm in diet, day 18
  Tumor Volume: 0.17 mL
[1]; celecoxib 160 ppm in diet, day 21
  Tumor Volume: 0.2 mL
[1]; celecoxib 160 ppm in diet, day 28
  Tumor Volume: 0.25 mL
[1]; celecoxib 160 ppm in diet, day 35
  Tumor Volume: 0.35 mL
[1]; celecoxib 160 ppm in diet, day 42
  Tumor Volume: 0.52 mL
[1]
  reduction in tumor volume: 52%
[4]
  effect on HT-29 tumors, dose dependence: approximate dose dependent effect
[2]
  reduction of tumor volume: 68%

## COc1ccc2c(c1)c(CC(=O)O)c(C)n2C(=O)c1ccc(Cl)cc1 [indomethacin]
[3]; mice with HT-29 tumors
  formation of lung metastasis: ineffective
[3]; mouse, in vivo, 2 mg/kg/day
  inhibition of tumor formation: 77%

## Cc1onc(-c2ccccc2)c1-c1ccc(S(N)(=O)=O)cc1 [valdecoxib, 4-(5-methyl-3-phenylisoxazol-4-yl)benzenesulfonamide]
[1]
  reduction in tumor volume: 69%
[1]; valdecoxib 160 ppm in diet, day 11
  Tumor Volume: 0.06 mL
[1]; valdecoxib 160 ppm in diet, day 14
  Tumor Volume: 0.13 mL
[1]; valdecoxib 160 ppm in diet, day 18
  Tumor Volume: 0.17 mL
[1]; valdecoxib 160 ppm in diet, day 21
  Tumor Volume: 0.2 mL
[1]; valdecoxib 160 ppm in diet, day 28
  Tumor Volume: 0.25 mL
[1]; valdecoxib 160 ppm in diet, day 35
  Tumor Volume: 0.32 mL
[1]; valdecoxib 160 ppm in diet, day 42
  Tumor Volume: 0.36 mL
